Data published in US6004933A, “Cysteine protease inhibitors” (Cortech Inc., priority 1998, dated 1999).
Where two headings read alike, the source gives them in different places.

Tests used:
FLICE (Mch5, Caspase 8) = FLICE (Mch5, Caspase 8) (Homo sapiens, UniProt Q14790); experiment: Caspase inhibition, photometric, Ac-DEVD-pNA; format: biochemical
Description: (§1) Inhibition constants were measured photometrically for YAMA (caspase 3), Lap3 (caspase 7), FLICE (caspase 8), Mch2 (caspase 6) and granzyme B. The buffer used for all enzymes consisted of 50 mM Hepes, 100 mM sodium chloride, 10% (v/v) sucrose, 0.1% (v/v) CHAPS and 10 mM dithiothreitol (DTT). In the case of granzyme B, only 1 mM DTT was used.
(§2) Enzymes were incubated at 37° C. for 10 minutes in 100 μL well plates and synthetic substrate and inhibitor were added simultaneously. Final substrate concentration was 20 μM in all cases. The synthetic substrate Ac-DEVD-pNA was used for all caspases and Succ-AAPD-pNA was used for granzyme B. The appearance of product was monitored over 10 minutes at 410 nm using a Spectromax 340 and IC50 curves were calculated from the initial slopes at varying inhibitor concentrations and inhibition constants were calculated.

Lap3 (Mch3, Caspase 7) = target: T1, Lap3 (Mch3, Caspase 7) (Homo sapiens, UniProt P55210); experiment: Caspase inhibition, photometric, Ac-DEVD-pNA; format: biochemical; conditions: 20 μM Ac-DEVD-pNA, 37° C.
T1 sequence (P55210 24-198 limits assumed): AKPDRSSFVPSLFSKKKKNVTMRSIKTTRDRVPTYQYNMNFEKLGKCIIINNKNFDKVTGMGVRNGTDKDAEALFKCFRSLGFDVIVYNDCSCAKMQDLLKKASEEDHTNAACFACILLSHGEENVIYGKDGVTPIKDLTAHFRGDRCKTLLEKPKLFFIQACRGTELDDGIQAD
T1 sequence (P55210 207-303 limits assumed): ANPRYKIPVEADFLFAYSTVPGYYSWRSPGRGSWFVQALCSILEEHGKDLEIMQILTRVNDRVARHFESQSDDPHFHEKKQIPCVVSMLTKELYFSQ
Description: as §1, §2

Mch2 (Caspase 6) = target: T2, Mch2 (Caspase 6) (Homo sapiens, UniProt P55212); experiment: Caspase inhibition, photometric, Ac-DEVD-pNA; format: biochemical; conditions: 20 μM Ac-DEVD-pNA, 37° C.
T2 sequence (P55212 24-179 limits assumed): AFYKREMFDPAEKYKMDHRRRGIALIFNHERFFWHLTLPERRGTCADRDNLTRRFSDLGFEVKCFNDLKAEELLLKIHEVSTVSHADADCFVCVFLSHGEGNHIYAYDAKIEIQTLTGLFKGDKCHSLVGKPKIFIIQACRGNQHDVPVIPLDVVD
T2 sequence (P55212 194-293 limits assumed): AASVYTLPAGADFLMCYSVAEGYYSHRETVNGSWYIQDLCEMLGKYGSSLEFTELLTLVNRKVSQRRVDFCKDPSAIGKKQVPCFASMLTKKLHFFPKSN
Description: as §1, §2

YAMA (CPP32, Caspase 3) = target: T3, YAMA (CPP32, Caspase 3) (Homo sapiens, UniProt P42574); experiment: Caspase inhibition, photometric, Ac-DEVD-pNA; format: biochemical; conditions: 20 μM Ac-DEVD-pNA, 37° C.
T3 sequence (P42574 29-175 limits assumed): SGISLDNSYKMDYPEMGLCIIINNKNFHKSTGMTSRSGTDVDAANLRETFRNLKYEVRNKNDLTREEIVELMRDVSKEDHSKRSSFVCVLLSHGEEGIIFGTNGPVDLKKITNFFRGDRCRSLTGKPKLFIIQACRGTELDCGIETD
T3 sequence (P42574 176-277 limits assumed): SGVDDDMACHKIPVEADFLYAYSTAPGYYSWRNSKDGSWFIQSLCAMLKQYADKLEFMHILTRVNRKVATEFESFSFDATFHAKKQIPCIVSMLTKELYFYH
Description: as §1, §2

ICE (Caspase 1) [1] = target: T4, ICE (Caspase 1) (Homo sapiens, UniProt P29466); experiment: THP-1 assay: IL-1β release after LPS stimulation (assay for ICE inhibition); format: cell-based; conditions: for IC50: LPS 1 ug/ml, 4 hr, ELISA, read-out: IC50 of reduction of IL1β release from THP1 cell line
T4 construct: endogenous in cells; host or cells: THP-1
T4 sequence (P29466 120-297 limits assumed): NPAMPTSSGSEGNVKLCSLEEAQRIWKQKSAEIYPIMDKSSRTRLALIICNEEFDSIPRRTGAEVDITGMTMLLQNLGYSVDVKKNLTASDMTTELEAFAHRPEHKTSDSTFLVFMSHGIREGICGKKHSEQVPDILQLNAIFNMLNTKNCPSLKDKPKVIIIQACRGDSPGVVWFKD
T4 sequence (P29466 317-404 limits assumed): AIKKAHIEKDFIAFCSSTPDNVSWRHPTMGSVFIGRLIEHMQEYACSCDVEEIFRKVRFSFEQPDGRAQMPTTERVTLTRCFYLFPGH
Source text: (§3) To examine the ability of the caspase family inhibitors, CQ-0010 and CQ-0011, to inhibit human IL-1β production, two different assays were employed. In the first, the human monocytic cell line, THP-1, was stimulated with E. coli lipopolysaccharide (LPS serotype 0127-88; Sigma Chemical Co., St. Louis, Mo.) in the presence and absence of the inhibitors. This cell line synthesizes and secretes IL-1β and TNFα as well as other cytokines upon LPS stimulation. The second assay used freshly-isolated human whole blood similarly stimulated with LPS.
(§4) Two×10^6 THP-1 cells were added to 24 well plates in 1 ml RPMI supplemented with 1% FCS, glutamine and 5×10^-5 M mercaptoethanol. Two-fold serial dilutions of the inhibitors, CQ-0010, CQ-0011 and the commmercially available Ac-YVAD-CHO (Biomol Research Laboratories Inc., Plymouth Meeting, Pa.), were preincubated with the cells for 15 min at 37° C. LPS was then added to a final concentration of 1 ug/ml and the plates incubated for 4 hr at 37° C. All incubations were carried out in a humidified incubator with 5% CO2 in air.
(§5) Supernatants were harvested after 4 hr and assayed by ELISA for the presence of TNFα and IL-1β using commercially available kits (PerSeptive Biosystems, Framingham, Mass. and R&D Systems, Minneapolis, Minn., respectively).

ICE (Caspase 1) [2] = target: T4, ICE (Caspase 1); experiment: Human whole blood assay: IL-1β release after LPS stimulation (assay for ICE inhibition); format: cell-based; conditions: LPS 10 or 100 ug/ml, 4 hr, ELISA, read-out: IC50 of reduction of IL1β release in whole blood assay
Source text: as §3
Heparinized whole blood (19.7 U heparin per ml) from healthy volunteers was collected and dispensed into 12×75 mm polystyrene tubes (0.25 ml per tube). The inhibitors, CQ-0010, CQ-0011 and Ac-YVAD-CHO were dissolved in DMSO, then diluted and added to the tubes in 0.25 ml and preincubated with the blood for 15 min at 37° C. LPS was then added to a final concentration of 10 or 100 ug/ml.
The tubes were loosely-capped and incubated in a water bath for 4 hr at 37° C. after which they were immersed briefly in an ice-water bath. Supernatants were harvested by centrifngation and stored at -70° C. The presence of TNFα and IL-1β was detected by commercially-available ELISA kits.

granzyme B = granzyme B (Homo sapiens, UniProt P10144); experiment: Granzyme B inhibition, photometric, Succ-AAPD-pNA; format: biochemical; conditions: 20 μM Succ-AAPD-pNA, 1 mM DTT
Description: as §1, §2

TNFα = experiment: THP-1 assay: TNFα levels after LPS stimulation; format: cell-based, human; conditions: THP-1 cells, results not shown
Source text: as §3, §4, §5

papain = target: T5, papain (Carica papaya, UniProt P00784); experiment: Papain inhibition, fluorometric assay with Cbz-Phe-Arg-NHMec; format: biochemical; conditions: IC50 at substrate << Km taken as Ki; pH 6.8
T5 construct: purchased Sigma (St. Louis, Mo.)
T5 sequence (P00784 134-345): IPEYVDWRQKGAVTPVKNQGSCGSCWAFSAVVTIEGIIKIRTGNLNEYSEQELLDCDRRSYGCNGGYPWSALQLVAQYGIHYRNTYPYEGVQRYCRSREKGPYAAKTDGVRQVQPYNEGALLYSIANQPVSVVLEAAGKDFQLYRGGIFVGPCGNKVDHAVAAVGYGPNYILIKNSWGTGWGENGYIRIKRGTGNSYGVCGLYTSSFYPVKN
Source text: (§6) The enzyme cathepsin B (E.C. 3.4.22.01) was obtained from Calbiochem (San Diego, Calif.); cathepsin L (E.C. 3.4.22.15) from Athens Research and Technology Inc. (Athens,Ga.); and papain (E.C. 3.4.22.02) from Sigma (St. Louis, Mo.).
(§7) Cbz-Phe-Arg-NHMec (--NHMec: 7-(4-methyl)coumarylamide) was obtained from BachemCalifornia, Inc. (Torrance, Calif.). All other reagents were obtained from Sigma.
(§8) The enzymes used in enzyme assays with methylcoumarylamides were activated as described elsewhere (Barret, et al., Methods Enzymol. 80:535-561 (1981); Bromme, et al., Biochem. J, 264: 475-481 (1989). Cathepsin L was assayed in 0.34 M sodium acetate buffer, pH 5.5, containing 0.1% (v/v) Brij 35, 2.5 mM dithiothreitol (DTT) and 5 mM Na2 -EDTA. Cathepsin B was assayed under the same conditions, except that the buffer was adjusted to pH 6. Papain was assayed in 50 mM sodium phosphate buffer, pH 6.8, containing 0.2 M sodium chloride, 2 mM DTT, 1 mM Na2 -EDTA and 0.025% Brij 35 (v/v).
(§9) Initial velocities of enzymatic reactions were measured spectrofluorometrically (λex =370 nm, λem 460 nm) with a Quanta Master QM1 (Photon Technologies International, South Brunswick, N.J.). Stock solutions of the enzymes were diluted into the buffer, equilibrated at room temperature, and preincubated without or with increasing concentrations of inhibitors. The reactions were started by addition of substrate. A total of 4 to 8 inhibitor concentrations were used to determine IC50 values. In all cases the substrate concentrations were much smaller than the Km value, and the IC50 values measured approximated the Ki directly (Cheng, et al., Biochemical Pharmacology, 22:3099-3108 (1973)).

cathepsin B = target: T6, cathepsin B (Homo sapiens, UniProt P07858); experiment: Cathepsin B inhibition, fluorometric assay with Cbz-Phe-Arg-NHMec; format: biochemical; conditions: human enzyme; IC50 at substrate << Km taken as Ki; pH 6
T6 construct: purchased Calbiochem (San Diego, Calif.)
Source text: as §6, §7, §8, §9

cathepsin L = target: T7, cathepsin L (Homo sapiens, UniProt P07711); experiment: Cathepsin L inhibition, fluorometric assay with Cbz-Phe-Arg-NHMec; format: biochemical; conditions: human enzyme; IC50 at substrate << Km taken as Ki; pH 5.5
T7 construct: purchased Athens Research and Technology Inc. (Athens,Ga.)
Source text: as §6, §7, §8, §9

gingipain R (RGP) = experiment: Gingipain assay, BAPNA cleavage at 405 nm; format: biochemical, human; conditions: 2 mM BAPNA, cell marked (IC50) in the Ki [nM] table
Description: All assays were carried out in a 96 well microtiter plate reader and cleavage of BAPNA (Nα-benzoyl-DL-arginine-p-nitroanilide hydrochloride) was detected at 405 nm.
All assays were performed as follows: 180 μl assay buffer (50 mM Tris, […], at pH 7.6) was mixed with 10 μl gingipain R (RGP). The mixture was incubated for 5 min. at room temperature to reduce and activate RGP. 10 μl of each inhibitor were added at various concentrations. These mixtures were incubated for 10 min. at room temperature to allow the inhibitors to complex with RGP. 50 μl of 10 mM BAPNA substrate was added. A two minute assay was performed with a final volume of 250 μl, and a final BAPNA concentration of 2 mM.
For this reason, two minute assays were performed whereby the Vmax in mOD/min change in absorbance at 405 nm was used as the initial velocity reading. In order to titrate RGP against leupeptin and to determine % activity, these velocity readings were transformed on a percent scale where the 100% control contained no inhibitor. The initial velocity values were also entered into Graphpad Prism regression program along with the various inhibitor concentrations to obtain the IC50 values. All data represents the minimum of duplicates, and at times triplicate sets.

[3] = 20 μM Ac-DEVD-pNA, 37° C., read-out: Ki, FLICE (Mch5, Caspase 8)

FLICE (Mch5, Caspase 8), sequence (Q14790 217-374 limits assumed, species assumed): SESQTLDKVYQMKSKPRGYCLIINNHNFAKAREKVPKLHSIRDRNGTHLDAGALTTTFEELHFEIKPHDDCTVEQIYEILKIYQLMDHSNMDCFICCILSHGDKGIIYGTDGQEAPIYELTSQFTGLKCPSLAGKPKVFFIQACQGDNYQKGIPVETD
FLICE (Mch5, Caspase 8), sequence (Q14790 385-479 limits assumed, species assumed): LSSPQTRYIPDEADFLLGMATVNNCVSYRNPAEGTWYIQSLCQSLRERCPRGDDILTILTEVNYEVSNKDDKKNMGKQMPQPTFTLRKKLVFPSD
granzyme B, sequence (P10144 21-247, species assumed): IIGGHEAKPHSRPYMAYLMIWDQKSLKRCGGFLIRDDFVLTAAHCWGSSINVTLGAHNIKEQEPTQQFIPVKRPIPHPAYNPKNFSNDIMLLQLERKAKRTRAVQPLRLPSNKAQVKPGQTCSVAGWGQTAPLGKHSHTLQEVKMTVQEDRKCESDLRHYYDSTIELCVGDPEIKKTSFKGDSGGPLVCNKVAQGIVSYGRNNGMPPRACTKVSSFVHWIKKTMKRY
T7 sequence (P07711 114-333): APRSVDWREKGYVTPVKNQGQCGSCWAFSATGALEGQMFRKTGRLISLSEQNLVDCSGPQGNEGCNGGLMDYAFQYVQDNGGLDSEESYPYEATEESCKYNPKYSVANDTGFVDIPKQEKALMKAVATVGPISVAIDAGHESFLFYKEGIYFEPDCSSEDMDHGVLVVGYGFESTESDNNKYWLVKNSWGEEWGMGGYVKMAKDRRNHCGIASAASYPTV

| SMILES | Ki (FLICE (Mch5, Caspase 8); [3]) | Ki, Lap3 (Mch3, Caspase 7) (Lap3 (Mch3, Caspase 7)) | Ki (Mch2 (Caspase 6)) | Ki (YAMA (CPP32, Caspase 3)) | IC50 (ICE (Caspase 1) [1]) | IC50 (ICE (Caspase 1) [2]) | Ki, Granzyme (granzyme B) | Ki (FLICE (Mch5, Caspase 8); read-out: Ki, FLICE) | inhibition of IL-1β production (ICE (Caspase 1) [1]; at 5 μM, THP-1 cells (FIG. 1)) | effect on levels of TNFα produced (TNFα) | Ki (papain) | Ki (cathepsin B) | Ki (cathepsin L) | IC50 (gingipain R (RGP)) |
| --- | --- | --- | --- | --- | --- | --- | --- | --- | --- | --- | --- | --- | --- | --- |
| CC(=O)N[C@@H](Cc1ccc(O)cc1)C(=O)N[C@H](C(=O)N[C@@H](C)C(=O)N[C@H](C=O)CC(=O)O)C(C)C [Ac-YVAD-CHO, reference compound] | 3700 nM | Not Active | 100000 nM | 20000 nM | 300 nM | 300 to 500 nM | Not Active |  |  |  |  |  |  |  |
| CC(=O)N[C@@H](Cc1ccc(O)cc1)C(=O)N[C@H](C(=O)N[C@@H](C)C(=O)NC(CC(=O)O)C(=O)c1nnc(-c2ccccc2)o1)C(C)C (stereo partly drawn) [CQ-0010, Acetyl-L-tyrosinyl-L-valyl-N-[1-[2-[(5-phenyl)-1,3,4-oxadiazolyl]carbonyl]-2-carboxy-ethyl]-L-alanine amide] | ≤ 20 nM | Not Active | 33000 nM | 3300 nM | 300 nM | 300 to 500 nM | Not Active | ≤ 20 nM | almost completely inhibiting | no dose-dependent effect |  |  |  |  |
| CC(=O)N[C@@H](CC(C)C)C(=O)N[C@@H](CC(C)C)C(=O)N[C@H](C=O)CCCNC(=N)N [Leupeptin, reference compound] |  |  |  |  |  |  |  |  |  |  | 1 ± 0.06 nM | 6.1 ± 1.2 nM | 0.62 ± 0.1 nM | 20.8 nM |
